System: Alanine-aminopeptidase
Assay: GRAM identification with impregnated bottle brush
Type: cell-based, Gram-negative bacteria
Conditions: for coloration intensity: semiquantitative scale up to 4
Excerpt: According to a representative example, the GRAM identification process uses a substrate based on aminobenzene or a derivative thereof, such as DiMethyl-paraPhenyleneDiamine (DMpPD). In the example which follows, the substrate consists of Alanine-Dimethyl-paraPhenyleneDiamine (AlaDMpPD).
It functions as follows. Enzymatic hydrolysis causes release of the DMpPD group. Next, the DMPD binds with α-naphthol (or a derivative) by oxidative coupling facilitated by an oxidizing agent, potassium ferricyanide (K3Fe(CN)6). This then causes formation of a violet-gray complex.
Another device has been defined, which is even more specific in Gram identification and which can also be used with blood agars of Columbia type. It consists of:
a medium consisting of a blood agar of Columbia type (with or without AlaDMpPD), and
a reaction mixture which impregnates a bottle brush and which is constituted on the basis of α-naphthol, potassium ferricyanide and AlaDMpPD and then dried.
This reaction mixture contained in the bottle brush was further improved by adding a step of drying the bottle brushes, which facilitates their subsequent manipulation.
The exact composition is as follows:
for the agar, presence or absence of AlaDMpPD at 0.075 gram per liter (g/l), and
α-naphthol from 0.01 to 5 g/l, preferably from 0.1 to 1 g/l, and for example 0.5 g/l,
potassium ferricyanide from 0.01 to 5 g/l, preferably from 0.1 to 1 g/l, and for example 0.5 g/l, and
AlaDMpPD from 0.01 to 5 g/l, preferably from 0.1 to 1 g/l, and for example 0.35 g/l.
The results obtained in terms of sensitivity and specificity are thus the best obtained. In this case, the detection of the reaction is not instantaneous. It takes 15 to 30 seconds (s) to observe the appearance of any coloration, this being the time required for hydrolysis of the substrate by the bacterial aminopeptidase. […]

Substance: Alanine-Dimethyl-paraPhenyleneDiamine [AlaDMpPD]
- coloration intensity (Gram-negative bacteria except Pseudomonas): greater than 2
- coloration intensity (Gram-positive bacteria or false-positives except S. pyogenes): less than 1
- detection time (most Gram-positive bacteria or false-positives, apart from S. pyogenes): > 10 s
